# Data from patent US20250283049A1, “AGENT FOR CULTURING ORGANOID IN ABSENCE OF EXTRACELLULAR MATRIX” (KEIO UNIVERSITY, priority 2022, published 2025).
# Legend:
# [1] = test system: human small intestine-derived organoid; experiment: Culture of organoids in absence of Matrigel with LATS kinase inhibitor; cell number by ATP (CellTiter-Glo 3D); type: cell-based
# Description: (§1) In this experimental example, a human small intestine-derived organoid and human large intestine-derived organoid established in the presence of Matrigel (registered trademark) were cultured in the absence of Matrigel (registered trademark) and in the presence of a LATS kinase inhibitor (final concentration: 10 μM), and their dynamics were observed. The procedure was the same as in Experimental Example 1, except that each organoid was cultured in the absence of Matrigel (registered trademark).
# The upper left panel of FIG. 3 is a photograph of a control (Ctrl) human small intestine-derived organoid cultured in the absence of Lats-IN, and the upper center panel of FIG. 3 is a photograph of a human small intestine-derived organoid cultured in the presence of Lats-IN. The scale bar is 100 μm. […] The vertical axis of the graph represents luminescence intensity (relative value) indicating the amount of ATP present. […]
# (§2) FIG. 8 presents graphs showing the results of measuring the proliferation of the human small intestine-derived and human large intestine-derived organoids in the absence of Lats-IN (Ctrl), in the presence of Lats-IN (Lats-IN), in the presence of Lats-IN and MYF01-37 (Lats-IN+MYF), and in the presence of MYF01-37 (MYF). The cell proliferation was measured by measuring ATP using a commercially available kit (product name “CellTiter-Glo 3D,” Promega Corporation). The vertical axis of the graph represents luminescence intensity (relative value) indicating the amount of ATP present. […]
# (§3) FIG. 26 presents graphs showing the results of measuring cell number in each organoid after 6 days of culture by measuring ATP using a commercially available kit (product name “CellTiter-Glo 3D,” Promega Corporation). The vertical axis of the graph represents luminescence intensity (relative value) indicating the amount of ATP present.
# [2] = test system: human large intestine-derived organoid; experiment: as above; type: cell-based
# Description: as §1
# The lower left panel of FIG. 3 is a photograph of a control (Ctrl) human large intestine-derived organoid cultured in the absence of Lats-IN, and the lower center panel of FIG. 3 is a photograph of a human large intestine-derived organoid cultured in the presence of Lats-IN. The scale bar is 100 μm. The lower right panel of FIG. 3 is a graph showing the results of measuring cell number in the human large intestine-derived organoids cultured in the presence of the control (Ctrl) and Lats-IN. The vertical axis of the graph represents luminescence intensity (relative value) indicating the amount of ATP present. […]
# as §2, §3
# AXIN2 gene = AXIN2 gene expression by quantitative real-time PCR in human small intestine-derived organoids; type: cell-based; conditions: absence of Matrigel; Lats-IN 10 μM
# Description: Human small intestine-derived organoids and human large intestine-derived organoids were cultured in the absence or presence of Matrigel (registered trademark) and in the absence or presence of Lats-IN (final concentration: 10 μM), and the expression level of the AXIN2 gene, whose expression is regulated by Wnt, was examined by quantitative real-time PCR.
# FIG. 16 presents graphs showing the results of quantitative real-time PCR.
# [3] = test system: immunodeficient mouse (NOG mouse) colon; experiment: Orthotopic xenotransplantation of organoids established in absence of Matrigel; type: in vivo; conditions: organoids established in absence of Matrigel and presence of TRULI, 1×10^7 cells
# Description: The human colon-derived organoids established in the absence of Matrigel (registered trademark) and in the presence of TRULI in Experimental Example 22 were orthotopically xenotransplanted into an immunodeficient mouse (NOG mouse) to examine whether they would engraft.
# FIG. 31 is a schematic view explaining an overview of this experimental example. The human colon-derived organoids established in the absence of Matrigel (registered trademark) and in the presence of TRULI were electroporated with a green fluorescent protein (GFP) expression vector to obtain GFP-labeled human colon-derived organoids.
# Subsequently, the GFP-labeled human colon-derived organoids were dissociated into single cells and then pre-cultured for 4 days in a medium supplemented with 2% Matrigel (registered trademark) or 2% collagen gel (50% type IA, 50% type IC). […]
# Subsequently, the total cell number of the pre-cultured GFP-labeled human colon-derived organoids was counted, and the cells were suspended in Advanced DMEM/F12 medium supplemented with 10% (vol/vol) Matrigel (registered trademark) or type IA collagen. […]
# [4] = Experimental Example 5, Lats-IN 10 μM alone
# [5] = final concentration 10 μM, 7 days of culture, vs control
compound,measurement,setting,value
O=C(N=c1sccn1Cc1ccccc1)c1c[nH]c2ncccc12 [Lats-IN],cell proliferation (ATP luminescence),[1]; [4],activated
same,"cell proliferation (cell number, ATP luminescence)",[1]; [5],significantly activated
same,cell proliferation (ATP luminescence),[2]; [4],activated
same,"cell proliferation (cell number, ATP luminescence)",[2]; [5],significantly activated
same,expression level of AXIN2,AXIN2 gene,increased to a level equivalent to that in the presence of Matrigel
same,engraftment of human colon-derived organoids established with TRULI,[3],could engraft
